pIC50: −log10 of the molar value. Like-named read-outs stand apart in the source and are kept apart here.
Legend:
Settings in all cases: range stated for the listed group of compounds
[1] = molecular target: farnesyl protein transferase (Homo sapiens, UniProt P49354+P49356); test: FPT IC50, inhibition of farnesyl protein transferase, in vitro enzyme assay (procedure of WO 95/10516); format: biochemical
Procedure: (§1) FPT IC50 (inhibition of farnesyl protein transferase, in vitro enzyme assay) and COS Cell IC50 (Cell-Based Assay) were determined following the assay procedures described in WO 95/10516, published April 20, 1995. GGPT IC50 (inhibition of geranylgeranyl protein transferase, in vitro enzyme assay), Cell Mat Assay, and anti-tumor activity (in vivo anti-tumor studies) could be determined by the assay procedures described in WO 95/10516.

COS Cell = COS Cell IC50 (Cell-Based Assay, procedure of WO 95/10516)
Procedure: as §1

Human tumor cells = test: Soft Agar Assay (anchorage-independent growth, colony count after MTT staining); format: cell-based
Procedure: Anchorage-independent growth is a characteristic of tumorigenic cell lines. Human tumor cells are suspended in growth medium containing 0.3% agarose and an indicated concentration of a farnesyl transferase inhibitor. The solution is overlayed onto growth medium solidified with 0.6% agarose containing the same concentration of farnesyl transferase inhibitor as the top layer. After the top layer is solidified, plates are incubated for 10-16 days at 37°C under 5% CO2 to allow colony outgrowth. After incubation, the colonies are stained by overlaying the agar with a solution of MTT (3-[4,5-dimethylthiazol-2-yl]-2.5-diphenyltetrazolium bromide, Thiazolyl blue) (1 mg/mL in PBS). Colonies can be counted and the IC50's can be determined.

[2] = ras form not stated, read-out: FPT IC50
[3] = H-ras, read-out: FPT IC50 (H-ras)
[4] = k-ras, read-out: FPT IC50 (k-ras)

farnesyl protein transferase, sequence (P49356 whole entry, one chain of several): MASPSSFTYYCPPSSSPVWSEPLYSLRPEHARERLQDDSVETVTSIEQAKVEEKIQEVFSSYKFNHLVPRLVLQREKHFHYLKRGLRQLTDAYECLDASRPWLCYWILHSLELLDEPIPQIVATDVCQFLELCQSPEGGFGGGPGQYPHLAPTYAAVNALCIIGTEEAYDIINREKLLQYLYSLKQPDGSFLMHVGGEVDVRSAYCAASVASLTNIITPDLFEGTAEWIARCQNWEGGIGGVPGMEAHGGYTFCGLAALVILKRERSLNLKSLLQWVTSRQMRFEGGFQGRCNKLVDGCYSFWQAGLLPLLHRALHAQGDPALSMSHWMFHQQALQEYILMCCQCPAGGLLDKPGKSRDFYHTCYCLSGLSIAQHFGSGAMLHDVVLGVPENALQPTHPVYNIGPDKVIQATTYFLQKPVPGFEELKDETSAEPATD

pIC50 [1, 2]	pIC50 (Human tumor cells)	pIC50 [1, 4]	Structure (SMILES)	pIC50 (COS Cell; read-out: Cos Cell)	pIC50 [1, 3]	pIC50 (COS Cell; read-out: Cos Cell IC50)
7.74 to 9.15			CCOC(=O)CC(=O)N1CCC(CC(=O)N2CCC([C@H]3c4ncc(Br)cc4CCc4cc(Cl)cc(Br)c43)CC2)CC1 [Compound 8.0-B]			
7.74 to 9.15	≤ 7.71		O=C(CC1CCN(C(=O)CN2CCCCC2)CC1)N1CCC([C@H]2c3ncc(Br)cc3CCc3cc(Cl)cc(Br)c32)CC1 [Compound 75.0-B]	≤ 8.05		
	≤ 7.71	7.15 to 7.84	CN(C)CC(=O)N1CCC(CC(=O)N2CCC(C3c4ncc(Br)cc4CCc4cc(Cl)cc(Br)c43)CC2)CC1 (single isomer, unassigned; (+)) [Compound 12.1]		7.50 to 8.70	6.15 to 8.00
		7.15 to 7.84	CC(C)(C)OC(=O)N[C@@H](Cc1c[nH]cn1)C(=O)N1CCC(CC(=O)N2CCC([C@H]3c4ncc(Br)cc4CCc4cc(Cl)cc(Br)c43)CC2)CC1 [Compound 6.0]	≤ 8.05	7.50 to 8.70	6.15 to 8.00
			O=C(CC1CCN(C(=O)CN2CCOCC2)CC1)N1CCC([C@H]2c3ncc(Br)cc3CCc3cc(Cl)cc(Br)c32)CC1 [Compound 13.0]		7.50 to 8.70	6.15 to 8.00
	≤ 7.71		NCC(=O)N1CCC(CC(=O)N2CCC([C@H]3c4ncc(Br)cc4CCc4cc(Cl)cc(Br)c43)CC2)CC1 [Compound 16.0]	≤ 8.05		
7.74 to 9.15	≤ 7.71		O=C(CC1CCN(C(=O)Cn2cnc([N+](=O)[O-])c2)CC1)N1CCC([C@H]2c3ncc(Br)cc3CCc3cc(Cl)cc(Br)c32)CC1 [Compound 26.0-B]	≤ 8.05		
7.74 to 9.15	≤ 7.71		COC(=O)c1cccn1CC(=O)N1CCC(CC(=O)N2CCC([C@H]3c4ncc(Br)cc4CCc4cc(Cl)cc(Br)c43)CC2)CC1 [Compound 35.0-B]	≤ 8.05		
7.74 to 9.15	≤ 7.71		CCOC(=O)c1c(C)ncn1CC(=O)N1CCC(CC(=O)N2CCC([C@H]3c4ncc(Br)cc4CCc4cc(Cl)cc(Br)c43)CC2)CC1 [Compound 53.0-B]	≤ 8.05		
			CN(C)CCCC(=O)N1CCC(CC(=O)N2CCC([C@H]3c4ncc(Br)cc4CCc4cc(Cl)cc(Br)c43)CC2)CC1 [Compound 12.2]		7.50 to 8.70	
7.74 to 9.15	≤ 7.71		O=C(CO)N1CCC(CC(=O)N2CCC([C@H]3c4ncc(Br)cc4CCc4cc(Cl)cc(Br)c43)CC2)CC1 [Compound 37.0-B]	≤ 8.05		
7.74 to 9.15	≤ 7.71		COC(=O)CCCCCC(=O)N1CCC(CC(=O)N2CCC([C@H]3c4ncc(Br)cc4CCc4cc(Cl)cc(Br)c43)CC2)CC1 [Compound 68.0-B]	≤ 8.05		
7.74 to 9.15	≤ 7.71		CC(C)=NOCCC(=O)N1CCC(CC(=O)N2CCC([C@H]3c4ncc(Br)cc4CCc4cc(Cl)cc(Br)c43)CC2)CC1 [Compound 23.0-B]	≤ 8.05	7.50 to 8.70	
7.74 to 9.15	≤ 7.71		O=C(CC1CCN(C(=O)Cn2cncn2)CC1)N1CCC([C@H]2c3ncc(Br)cc3CCc3cc(Cl)cc(Br)c32)CC1 [Compound 57.0-B]	≤ 8.05		
			COC(=O)CCCC(=O)N1CCC(CC(=O)N2CCC(C3c4ncc(Br)cc4CCc4cc(Cl)cc(Br)c43)CC2)CC1 (stereo not drawn) [Compound 15.1]		7.50 to 8.70	6.15 to 8.00
	≤ 7.71		COC(=O)C(=O)N1CCC(CC(=O)N2CCC([C@H]3c4ncc(Br)cc4CCc4cc(Cl)cc(Br)c43)CC2)CC1 [Compound 104.0-B]	≤ 8.05	7.50 to 8.70	
7.74 to 9.15			O=C(CC1CCN(C(=O)CC2CCCCO2)CC1)N1CCC([C@H]2c3ncc(Br)cc3CCc3cc(Cl)cc(Br)c32)CC1 (stereo partly drawn) [Compound 114.3-B]	≤ 8.05		
			CS(=O)(=O)NCC(=O)N1CCC(CC(=O)N2CCC([C@H]3c4ncc(Br)cc4CCc4cc(Cl)cc(Br)c43)CC2)CC1 [Compound 11.0]		7.50 to 8.70	6.15 to 8.00

pIC50 [1, 2]	pIC50 (Human tumor cells)	pIC50 [1, 4]	Structure (SMILES)	pIC50 (COS Cell; read-out: Cos Cell)	pIC50 [1, 3]	pIC50 (COS Cell; read-out: Cos Cell IC50)
7.74 to 9.15	≤ 7.71		CC(=O)C(=O)N1CCC(CC(=O)N2CCC([C@H]3c4ncc(Br)cc4CCc4cc(Cl)cc(Br)c43)CC2)CC1 [Compound 72.0-B]	≤ 8.05		
			O=C(CC1CCN(C(=O)CN2CCS(=O)(=O)CC2)CC1)N1CCC(C2c3ncc(Br)cc3CCc3cc(Cl)cc(Br)c32)CC1 (single isomer, unassigned; (+)) [Compound 14.1]		7.50 to 8.70	6.15 to 8.00
7.74 to 9.15	≤ 7.71		NC(=O)CC(=O)N1CCC(CC(=O)N2CCC([C@H]3c4ncc(Br)cc4CCc4cc(Cl)cc(Br)c43)CC2)CC1 [Compound 50.0-B]	≤ 8.05		
7.74 to 9.15	≤ 7.71	7.15 to 7.84	O=C(CC1CCN(C(=O)Cn2cnc3ccccc32)CC1)N1CCC([C@H]2c3ncc(Br)cc3CCc3cc(Cl)cc(Br)c32)CC1 [Compound 12.0-B]	≤ 8.05		
7.74 to 9.15	≤ 7.71		CONC(=O)C(=O)N1CCC(CC(=O)N2CCC([C@H]3c4ncc(Br)cc4CCc4cc(Cl)cc(Br)c43)CC2)CC1 [Compound 49.0-B]	≤ 8.05		
7.74 to 9.15	≤ 7.71		COC(=O)Cc1cn(CC(=O)N2CCC(CC(=O)N3CCC([C@H]4c5ncc(Br)cc5CCc5cc(Cl)cc(Br)c54)CC3)CC2)cn1 [Compound 56.0-B]	≤ 8.05		
7.74 to 9.15	≤ 7.71		CCOC(=O)c1ncn(CC(=O)N2CCC(CC(=O)N3CCC([C@H]4c5ncc(Br)cc5CCc5cc(Cl)cc(Br)c54)CC3)CC2)c1C [Compound 54.0-B]	≤ 8.05		
			CCOC(=O)CC(=O)N1CCC(CC(=O)N2CCC(C3c4ncc(Br)cc4CCc4cc(Cl)cc(Br)c43)CC2)CC1 (stereo not drawn) [Compound 15.3]		7.50 to 8.70	6.15 to 8.00
7.74 to 9.15			CC(C)(C)OC(=O)NCCC(=O)N1CCC(CC(=O)N2CCC([C@H]3c4ncc(Br)cc4CCc4cc(Cl)cc(Br)c43)CC2)CC1 [Compound 86.0-B]			
			O=C(CCN1CCCCC1)N1CCC(CC(=O)N2CCC(C3c4ncc(Br)cc4CCc4cc(Cl)cc(Br)c43)CC2)CC1 (single isomer, unassigned; (+)) [Compound 14.2]		7.50 to 8.70	6.15 to 8.00
7.74 to 9.15			CCOC(CC(=O)N1CCC(CC(=O)N2CCC([C@H]3c4ncc(Br)cc4CCc4cc(Cl)cc(Br)c43)CC2)CC1)OCC [Compound 76.0-B]			
		7.15 to 7.84	N[C@@H](Cc1ccccc1)C(=O)N1CCC(CC(=O)N2CCC([C@H]3c4ncc(Br)cc4CCc4cc(Cl)cc(Br)c43)CC2)CC1 [Compound 8.0]		7.50 to 8.70	6.15 to 8.00
7.74 to 9.15		7.15 to 7.84	O=C(CCN1CCCCC1)N1CCC(CC(=O)N2CCC([C@H]3c4ncc(Br)cc4CCc4cc(Cl)cc(Br)c43)CC2)CC1 [Compound 7.0-B]	≤ 8.05		
			O=C(NCC(=O)N1CCC(CC(=O)N2CCC([C@H]3c4ncc(Br)cc4CCc4cc(Cl)cc(Br)c43)CC2)CC1)c1ccccc1 [Compound 12.0]		7.50 to 8.70	6.15 to 8.00
			CC(C)(C)OC(=O)N[C@@H](Cc1ccccc1)C(=O)N1CCC(CC(=O)N2CCC([C@H]3c4ncc(Br)cc4CCc4cc(Cl)cc(Br)c43)CC2)CC1 [Compound 5.0]		7.50 to 8.70	
7.74 to 9.15			O=C(CC1CCN(C(=O)Cn2cnc(-c3ccccc3)c2)CC1)N1CCC([C@H]2c3ncc(Br)cc3CCc3cc(Cl)cc(Br)c32)CC1 [Compound 20.0-B]			
7.74 to 9.15			COC(NC(=O)CC(=O)N1CCC(CC(=O)N2CCC([C@H]3c4ncc(Br)cc4CCc4cc(Cl)cc(Br)c43)CC2)CC1)C(C)C (stereo partly drawn) [Compound 51.0-B]	≤ 8.05		
		7.15 to 7.84	CC(C)(C)OC(=O)N1CCC[C@H]1C(=O)N1CCC(CC(=O)N2CCC([C@H]3c4ncc(Br)cc4CCc4cc(Cl)cc(Br)c43)CC2)CC1 [Compound 7.0]		7.50 to 8.70	6.15 to 8.00

Structure (SMILES)	pIC50 [1, 2]	pIC50 (Human tumor cells)	pIC50 [1, 4]	pIC50 (COS Cell; read-out: Cos Cell)	pIC50 [1, 3]	pIC50 (COS Cell; read-out: Cos Cell IC50)
O=C(O)CC(=O)N1CCC(CC(=O)N2CCC([C@H]3c4ncc(Br)cc4CCc4cc(Cl)cc(Br)c43)CC2)CC1 [Compound 14.0-B]	7.74 to 9.15	≤ 7.71		≤ 8.05		
C[C@@H](NC(=O)OC(C)(C)C)C(=O)N1CCC(CC(=O)N2CCC([C@H]3c4ncc(Br)cc4CCc4cc(Cl)cc(Br)c43)CC2)CC1 [Compound 4.0]			7.15 to 7.84		7.50 to 8.70	
NCCCC(=O)N1CCC(CC(=O)N2CCC([C@H]3c4ncc(Br)cc4CCc4cc(Cl)cc(Br)c43)CC2)CC1 [Compound 90.0-B]	7.74 to 9.15					
O=C(O)CCCCCC(=O)N1CCC(CC(=O)N2CCC([C@H]3c4ncc(Br)cc4CCc4cc(Cl)cc(Br)c43)CC2)CC1 [Compound 70.0-B]	7.74 to 9.15	≤ 7.71		≤ 8.05		
CC(C)(C)OC(=O)NCC(=O)N1CCC(CC(=O)N2CCC([C@H]3c4ncc(Br)cc4CCc4cc(Cl)cc(Br)c43)CC2)CC1 [Compound 2.0]			7.15 to 7.84		7.50 to 8.70	
C[C@H](NC(=O)OC(C)(C)C)C(=O)N1CCC(CC(=O)N2CCC([C@H]3c4ncc(Br)cc4CCc4cc(Cl)cc(Br)c43)CC2)CC1 [Compound 3.0]			7.15 to 7.84		7.50 to 8.70	
N[C@@H](Cc1c[nH]cn1)C(=O)N1CCC(CC(=O)N2CCC([C@H]3c4ncc(Br)cc4CCc4cc(Cl)cc(Br)c43)CC2)CC1 [Compound 9.0]			7.15 to 7.84		7.50 to 8.70	

— patent EP0942906B1, “COMPOUNDS USEFUL FOR INHIBITION OF FARNESYL PROTEIN TRANSFERASE” (SCHERING CORPORATION, priority 1996, dated 1998)
